The target of this test is NK1 receptors (Homo sapiens, UniProt P25103). The test can be described thus: Binding of [4,5-3H-Leu10] substance P to human recombinant NK1 receptors expressed in CHO cell membranes. More on the design: host or cells: CHO cells. The note with it: pIC50 = -log IC50, concentration inhibiting by 50% the specific binding of [4,5-3H] substance P; tested as the free base/salt given in c1. As for the experimental part: The following test was designed to assess the affinity of test substances for human recombinant NK1 receptors expressed in Chinese Hamster Ovarian (CHO) cells.
Sequence of NK1 receptors (P25103 whole entry): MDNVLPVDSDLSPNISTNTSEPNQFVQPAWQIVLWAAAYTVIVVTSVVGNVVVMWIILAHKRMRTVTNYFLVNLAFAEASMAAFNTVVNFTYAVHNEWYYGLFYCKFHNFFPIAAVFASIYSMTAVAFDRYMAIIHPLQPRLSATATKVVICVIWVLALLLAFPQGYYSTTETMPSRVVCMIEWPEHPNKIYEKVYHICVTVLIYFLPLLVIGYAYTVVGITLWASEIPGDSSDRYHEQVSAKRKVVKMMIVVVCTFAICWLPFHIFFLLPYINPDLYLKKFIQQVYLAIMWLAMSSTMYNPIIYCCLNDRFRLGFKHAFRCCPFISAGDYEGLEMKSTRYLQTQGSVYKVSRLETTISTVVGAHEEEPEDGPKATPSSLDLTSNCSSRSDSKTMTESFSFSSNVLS
CHO cells expressing the human recombinant NK1 receptor are used. The cells were obtained from Euroscreen (Brussels, Belgium).
Cells expressing the human NK1 receptor are routinely cultured in 175 cm2 flasks containing 75 ml of medium F12 (Ham) enriched with 2 mmol/l L-glutamine, 100 IU/ml penicilline, 100 μg/ml streptomycine, 1% sodium pyruvate, 2.5 μg/ml fungizone amphotericin B, 400 μg/ml geneticin and supplemented with 10% foetal calf serum. […] When subcultured, the cells are seeded at a concentration of 50,000 cells/cm2.
Confluent cells are gently scraped and resuspended in 25 ml of phosphate buffered saline without calcium and magnesium. The cellular suspension is centrifuged at 1500×g for 3 min (4° C.). The cell pellet is homogenized in a 15 mmol/l Tris-HCl (pH 7.5) buffer, 2 mmol/l MgCl2, 0.3 mmol/l EDTA, 1 mmol/l EGTA. The crude membrane fraction is collected by two consecutive centrifugation steps at 40,000×g for 25 min (4° C.). The final pellet is resuspended in 20 mmol/l Tris-HCl (pH 7.4), 250 mmol/l sucrose buffer at a protein concentration ranging from 2 to 6 mg/ml and stored in liquid nitrogen. • 1.2.2. Test Design
The inhibition constant (Ki) is determined using increasing concentrations of the test substance. The concentration range usually encompasses 6 log units with variable steps (0.3 to 1 log). Assays are performed in mono- or duplicate.
Membranes are incubated at 25° C. for 60 min in 0.5 ml of a 50 mmol/l Tris-HCl buffer (pH 7.4) containing 2 mmol/l MgCl2, 100 μg/ml bacitracine, 0.1 to 0.4×10^−9 mol/l of [4,5^3H-Leu^10] substance P (specific activity>100 Ci/mmol) and increasing concentrations of the test substance. […] Membrane-bound and free radioligands are separated by rapid filtration through glass fiber filters (equivalent to Whatman GF/C or GF/B; VEL, Belgium) presoaked in 0.1% polyethyleneimine to reduce non specific binding. Samples and filters are rinsed by at least 6 ml of 50 mmol/l Tris-HCl (pH 7.4) buffer.
Initial values for the different variables may be provided by the experimenter.

On to `COC(=O)CN1CCN(C(COCc2cc(Br)cc(I)c2)c2ccccc2)CC1` (racemic) [Compound 208], for which the IC50 – broadly, the concentration at which inhibition is half-maximal – was 63.1 nM.

For the compound `N#CCCCCCN1CCN(C(COCc2cc(C(F)(F)F)cc(C(F)(F)F)c2)c2ccccc2)CC1` (racemic) [Compound 156], the IC50 is 7.94 nM.

As for `CN(C(=O)CN1CCN(C(COCc2cc(C(F)(F)F)cc(C(F)(F)F)c2)c2ccccc2)CC1)C(C)(C)C` (racemic) [Compound 294], the IC50 was 12.6 nM.

Turning to `N#CCOCCN1CCN(C(COCc2cc(C(F)(F)F)cc(C(F)(F)F)c2)c2ccccc2)CC1` (racemic) [Compound 155], the IC50 is 15.8 nM.

On to `CCOC(=O)CCCN1CCN(C(COCc2cc(C(F)(F)F)cc(C(F)(F)F)c2)c2ccccc2)CC1` (racemic) [Compound 138, 4-{4-[2-(3,5-Bis-trifluoromethyl-benzyloxy)-1-phenyl-ethyl]-piperazin-1-yl}-butyric acid ethyl ester], for which the IC50 is 10 nM.

With `NC(=O)COCCN1CCN([C@H](COCc2cc(C(F)(F)F)cc(C(F)(F)F)c2)c2ccccc2)CC1` [Compound 148], the IC50 was 39.8 nM.

For the compound `CCOP(=O)(CCN1CCN([C@H](COCc2cc(C(F)(F)F)cc(C(F)(F)F)c2)c2ccccc2)CC1)OCC` [Compound 164], the IC50 was 39.8 nM.

For the compound `NC(=O)CN1CCN(C(COCc2cc(C(F)(F)F)cc(C(F)(F)F)c2)c2cccc3ccccc23)CC1` (racemic) [Compound 191], the IC50 was 63.1 nM.

With `O=C1c2ccccc2C(=O)N1CCN1CCN(C(COCc2cc(C(F)(F)F)cc(C(F)(F)F)c2)c2ccccc2)CC1` (racemic) [Compound 171], the IC50 was 79.4 nM.

For `OCCN1CCN(C(COCc2cc(C(F)(F)F)cc(C(F)(F)F)c2)c2ccccc2)CC1` (racemic) [Compound 157, 2-{4-[2-(3,5-Bis-trifluoromethyl-benzyloxy)-1-phenyl-ethyl]-piperazin-1-yl}-ethanol], the IC50 is 6.31 nM.

As to `NC(=O)COCCN1CCN(C(COCc2cc(C(F)(F)F)cc(C(F)(F)F)c2)c2ccccc2)CC1` (racemic) [Compound 147], the IC50 is 10 nM.

For `CC(C)OC(=O)CCCCCN1CCN(C(COCc2cc(C(F)(F)F)cc(C(F)(F)F)c2)c2ccccc2)CC1` (racemic) [Compound 142], the IC50 was 7.94 nM.

In the case of `FC(F)(F)c1cc(COCC(c2ccccc2)N2CCN(c3ccnc4ccccc34)CC2)cc(C(F)(F)F)c1` (stereo not drawn) [Compound 227], the IC50 was 39.8 nM.

Turning to `NC(=O)CCCN1CCN(C(COCc2cc(C(F)(F)F)cc(C(F)(F)F)c2)c2ccccc2)CC1` (stereo not drawn) [Compound 288, 4-{4-[2-(3,5-Bis-trifluoromethyl-benzyloxy)-1-phenyl-ethyl]-piperazin-1-yl}-butyramide], the IC50 was 5.01 nM.

On to `COc1cc(COCCN2CCN(C(COCc3cc(C(F)(F)F)cc(C(F)(F)F)c3)c3ccccc3)CC2)cc(OC)c1OC` (stereo not drawn) [Compound 176], for which the IC50 is 25.1 nM.

On to `COc1cc(COCCN2CCN(C(COCc3cc(C(F)(F)F)cc(C(F)(F)F)c3)c3ccccc3)CC2)cc(OC)c1OC` (racemic) [Compound 175], for which the IC50 is 5.01 nM.

As to `COc1cc(CN2CCN([C@H](COCc3cc(C(F)(F)F)cc(C(F)(F)F)c3)c3ccccc3)CC2)cc(OC)c1OC` [Compound 173], the IC50 was 25.1 nM.

Regarding `COC(=O)CCCCN1CCN(C(COCc2cc(C(F)(F)F)cc(C(F)(F)F)c2)c2ccccc2)CC1` (racemic) [Compound 139], the IC50 was 6.31 nM.

In the case of `N#CCCCN1CCN(C(COCc2cc(C(F)(F)F)cc(C(F)(F)F)c2)c2ccccc2)CC1` (racemic) [Compound 151], the IC50 was 20 nM.

Consider `NC(=O)CN1CCN([C@H](COCc2cc(C(F)(F)F)cc(C(F)(F)F)c2)c2ccccc2)CC1` [Compound 144, (S)-2-{4-[2-(3,5-Bis-trifluoromethyl-benzyloxy)-1-phenyl-ethyl]-piperazin-1-yl}-acetamide], for which the IC50 is 39.8 nM.

Regarding `FC(F)(F)c1cc(COCC(c2ccccc2)N2CCN(CCN3CCOCC3)CC2)cc(C(F)(F)F)c1` (racemic) [Compound 162], the IC50 is 7.94 nM.

As for `OCCOCCN1CCN([C@H](COCc2cc(C(F)(F)F)cc(C(F)(F)F)c2)c2ccccc2)CC1` [Compound 158], the IC50 was 7.94 nM.

`CC(=O)NC(CCN1CCN(C(COCc2cc(C(F)(F)F)cc(C(F)(F)F)c2)c2ccccc2)CC1)c1ccccc1` (stereo not drawn) [Compound 308, N-(3-{4-[2-(3,5-Bis-trifluoromethyl-benzyloxy)-1-phenyl-ethyl]-piperazin-1-yl}-1-phenyl-propyl)-acetamide]: the IC50 is 12.6 nM.

As for `CCOC(=O)CCCCCN1CCN(C(COCc2cc(C(F)(F)F)cc(C(F)(F)F)c2)c2ccccc2)CC1` (racemic) [Compound 141], the IC50 was 7.94 nM.

As to `CC(C)OC(=O)CN1CCN([C@H](COCc2cc(C(F)(F)F)cc(C(F)(F)F)c2)c2ccccc2)CC1` [Compound 136], the IC50 was 79.4 nM.

`NC(=O)CCCCCN1CCN(C(COCc2cc(C(F)(F)F)cc(C(F)(F)F)c2)c2ccccc2)CC1` (racemic) [Compound 150]: the IC50 is 5.01 nM.

In the case of `FC(F)(F)c1cc(COCC(c2ccccc2)N2CCN(Cc3ccccn3)CC2)cc(C(F)(F)F)c1` (racemic) [Compound 170], the IC50 is 50.1 nM.

For the compound `N#CCCCCN1CCN(C(COCc2cc(C(F)(F)F)cc(C(F)(F)F)c2)c2ccccc2)CC1` (racemic) [Compound 152], the IC50 was 12.6 nM.

For `CC(C)(C)NC(=O)CN1CCN(C(COCc2cc(C(F)(F)F)cc(C(F)(F)F)c2)c2ccccc2)CC1` (racemic) [Compound 293], the IC50 is 63.1 nM.

`NC(=O)CN1CCN([C@@H](COCc2cc(C(F)(F)F)cc(C(F)(F)F)c2)c2ccccc2)CC1` [Compound 145]: the IC50 was 31.6 nM.

As for `O=C(CCCCCN1CCN(C(COCc2cc(C(F)(F)F)cc(C(F)(F)F)c2)c2ccccc2)CC1)NO` (stereo not drawn) [Compound 315, 6-{4-[2-(3,5-Bis-trifluoromethyl-benzyloxy)-1-phenyl-ethyl]-piperazin-1-yl}-hexanoic acid hydroxyamide], the IC50 is 5.01 nM.

Consider `NC(=O)CCN1CCN(C(COCc2cc(C(F)(F)F)cc(C(F)(F)F)c2)c2ccccc2)CC1` (stereo not drawn) [Compound 146], for which the IC50 is 15.8 nM.

Take `NC(=O)COCCN1CCN([C@@H](COCc2cc(C(F)(F)F)cc(C(F)(F)F)c2)c2ccccc2)CC1` [Compound 149]: the IC50 was 63.1 nM.

Take `COc1cc(CN2CCN([C@@H](COCc3cc(C(F)(F)F)cc(C(F)(F)F)c3)c3ccccc3)CC2)cc(OC)c1OC` [Compound 174]: the IC50 was 39.8 nM.

Regarding `O=S1(=O)CCN(CCN2CCN(C(COCc3cc(C(F)(F)F)cc(C(F)(F)F)c3)c3ccccc3)CC2)CC1` (racemic) [Compound 161], the IC50 was 7.94 nM.

As to `NC(=O)CN1CCN(C(COCc2cc(C(F)(F)F)cc(C(F)(F)F)c2)c2ccccc2)CC1` (stereo not drawn) [Compound 143], the IC50 was 39.8 nM.

Source of the values: patent US6916797B2, “α-arylethylpiperazine derivatives as neurokinin antagonists” (UCB, S.A., priority 2000, dated 2005).
